Among the data in US20260166039A1 (SCHRÖDINGER, INC., priority 2022, published 2026) are IC50 values, retold here.

What is called IC50 is the concentration that inhibits the measured activity by half. Low readings indicate greater potency, high ones weaker potency.

SMILES strings stand for the structures.

The target of the first test is T1, Wee1 kinase domain (Homo sapiens, UniProt P30291).
T1 construct: Wee1 kinase domain was purchased from Carna (catalog #05-177); purchased Carna 05-177
T1 sequence (P30291 299-569 limits assumed): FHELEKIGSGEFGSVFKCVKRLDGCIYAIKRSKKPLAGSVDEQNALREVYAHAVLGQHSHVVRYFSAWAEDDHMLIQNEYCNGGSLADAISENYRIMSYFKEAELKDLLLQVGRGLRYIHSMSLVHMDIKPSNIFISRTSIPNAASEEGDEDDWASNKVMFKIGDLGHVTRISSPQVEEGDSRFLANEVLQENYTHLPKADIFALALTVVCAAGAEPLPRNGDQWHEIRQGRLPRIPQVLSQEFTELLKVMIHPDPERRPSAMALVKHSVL
Description: Wee1 Kinase Biochemical Assay (ADP-Glo). The conditions noted are these: 1 nM Wee1 enzyme, 15 uM ATP, 4 hours at 25° C. The gist of the method: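 Carna Wee1 kinase domain at 1 nM, with 15 uM ATP and 2 ng/mL poly(Lys,Tyr 4:1) substrate in 40 mM Tris-HCl, 20 mM MgCl2, 0.1 mg/mL BSA, 2 mM DTT, run 4 h at 25° C. ADP formation read by ADP-Glo luminescence. Percent inhibition normalised to DMSO and saturating-inhibitor controls.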
Consider `Cc1cc(Nc2ncc3c(n2)N(c2cccc(N=S(C)(C)=O)n2)C2CC(C)(C)OCC32C)cc(=O)n1C` (single isomer, unassigned) [Example 816], for which the IC50 is less than 10 nM.
`CC1(C)C[C@H]2N(c3cccc(N=S(C)(C)=O)n3)c3nc(Nc4cncc(C(F)F)c4)ncc3[C@@]2(C)CO1` (single isomer, unassigned) [Example 815] returned a half-inhibitory concentration (IC50) of less than 10 nM.

The test is the same for the next values; noted with them: Wee1 kinase domain, 15 uM ATP, ADP-Glo.
`C[C@H]1COC(=O)N1c1cccc(N2c3nc(Nc4ccc(N5C[C@H]6C[C@@H](C5)N6C)cc4)ncc3[C@]3(C)COC(C)(C)C[C@H]23)n1` (single isomer, unassigned) [Example 353] registered an IC50 of 10 to 100 nM.
For `C[C@H]1COC(=O)N1c1cccc(N2c3nc(Nc4ccc(N5CCCN(C)CC5)cc4)ncc3[C@]3(C)COC(C)(C)C[C@H]23)n1` (single isomer, unassigned) [Example 298], the IC50 was 10 to 100 nM.
The molecule `C[C@H]1COC(=O)N1c1cccc(N2c3nc(Nc4ccc(OC5CCNCC5)nc4)ncc3[C@]3(C)COC(C)(C)C[C@H]23)n1` (single isomer, unassigned) [Example 324] registered a half-maximal inhibitory concentration (IC50) of 100 to 1000 nM.
As to `CC1(C)C[C@@H]2N(c3cccc(N=S(C)(C)=O)n3)c3nc(Nc4cnn(C5CCOCC5)c4)ncc3[C@]2(C)CO1` (single isomer, unassigned) [Example 186], the IC50 was 100 to 1000 nM.
With `CNCc1cccc(N2c3nc(Nc4ccc(N5CC6CC5CO6)cc4)ncc3[C@]3(C)COC(C)(C)C[C@H]23)n1` (stereo in doubt) [Example 42, (4bS,8aS)-N-(4-((1R,4R)-2-oxa-5-azabicyclo[2.2.1]heptan-5-yl)phenyl)-4b,7,7-trimethyl-9-(6-((methylamino)methyl)pyridin-2-yl)-4b,5,7,8,8a,9-hexahydropyrano[3′,4′:4,5]pyrrolo[2,3-d]pyrimidin-2-amine], the IC50 fell in the range of 10 to 100 nM.
`C[C@H]1COC(=O)N1c1cccc(N2c3nc(Nc4ccc([C@H]5CCNC5)cc4)ncc3[C@]3(C)COC(C)(C)C[C@H]23)n1` (single isomer, unassigned) [Example 278] had an IC50 of 10 to 100 nM.
For `CNCc1cccc(N2c3nc(Nc4ccc([C@H]5CCC(=O)N5C)nc4)ncc3[C@]3(C)COC(C)(C)C[C@H]23)n1` (single isomer, unassigned) [Example 97], the 50% inhibitory concentration (IC50) was 100 to 1000 nM.
`CNCc1cccc(N2c3nc(Nc4ccc([C@@H]5CCC(=O)N5C)cc4)ncc3[C@]3(C)COC(C)(C)C[C@H]23)n1` (single isomer, unassigned) [Example 51]: the IC50 was not below 1000 nM.
Regarding `Cc1cc(Nc2ncc3c(n2)N(c2cccc(N4C(=O)OC[C@@H]4C)n2)[C@H]2CC(C)(C)OC[C@@]32C)ccc1O[C@@H]1CCN(C)C1` (single isomer, unassigned) [Example 346], the concentration for half-maximal inhibition (IC50) lay within 10 to 100 nM.
In the case of `CN1CC[C@@H](c2ccc(Nc3ncc4c(n3)N(c3cccc(N=S(C)(C)=O)n3)[C@H]3CC(C)(C)OC[C@@]43C)cc2)C1` (single isomer, unassigned) [Example 130], the IC50 fell in the range of 100 to 1000 nM.
On the same count and under the same terms, the result for `CN1C[C@H]2C[C@@H]1CN2c1ccc(Nc2ncc3c(n2)N(c2cccc(N=S(C)(C)=O)n2)[C@H]2CC(C)(C)OC[C@@]32C)cc1F` (single isomer, unassigned) [Example 175] reads 100 to 1000 nM; that for `CN1CCN(c2ccc(Nc3ncc4c(n3)N(c3cccc(C(C)(C)O)n3)[C@H]3CC(C)(C)OC[C@@]43C)cc2)CC1` (single isomer, unassigned) [Example 3], 100 to 1000 nM; that for `CNCc1cccc(N2c3nc(Nc4ccc([C@@H]5CC(=O)N(C)C5)cc4)ncc3[C@]3(C)COC(C)(C)C[C@H]23)n1` (single isomer, unassigned) [Example 70], 10 to 100 nM.
`C[C@H]1COC(=O)N1c1cccc(N2c3nc(N)ncc3[C@@]3(C)COC(C)(C)C[C@@H]23)n1` (single isomer, unassigned) [Example 356] came in with an IC50 of 10 to 100 nM.
The molecule `CC1(C)C[C@@H]2N(c3cccc(N=S(C)(C)=O)n3)c3nc(Nc4ccc([C@H]5CCNC5)cc4)ncc3[C@]2(C)CO1` (single isomer, unassigned) [Example 138] showed an IC50 of 10 to 100 nM.
As for `CN1CCC[C@@H]1c1ccc(Nc2ncc3c(n2)N(c2cccc(N=S(C)(C)=O)n2)[C@H]2CC(C)(C)OC[C@@]32C)cc1` (single isomer, unassigned) [Example 128], the half-maximal inhibitory concentration (IC50) lay within 100 to 1000 nM.
For `CN[C@H](Cc1ccc(Nc2ncc3c(n2)N(c2cccc(N4C(=O)OC[C@@H]4C)n2)[C@H]2CC(C)(C)OC[C@@]32C)cc1)C(=O)O` (single isomer, unassigned) [Example 322], the 50% inhibitory concentration (IC50) lay within 100 to 1000 nM.

Still in this test, the particulars now being: class symbols; 1 nM Wee1 enzyme, 15 uM ATP, 4 hours at 25° C.
`CC1(C)C[C@@H]2N(c3cccc(N4CCOC4=O)n3)c3nc(Nc4ccc([C@H]5CNC[C@H]5F)cc4)ncc3[C@]2(C)CO1` [Example 673, 3-(6-((4bS,8aS)-2-((4-((3S,4S)-4-fluoropyrrolidin-3-yl)phenyl)amino)-4b,7,7-trimethyl-4b,7,8,8a-tetrahydropyrano[3′,4′:4,5]pyrrolo[2,3-d]pyrimidin-9(5H)-yl)pyridin-2-yl)oxazolidin-2-one] displayed an IC50 of 10 to 100 nM.
In the case of `CN1CC2(C1)CN(c1ccc(Nc3ncc4c(n3)N(c3cccc(N5C(=O)OCC5(C)C)n3)[C@@H]3CC(C)(C)OC[C@]43C)cc1)C2` (single isomer, unassigned) [Example 785], the 50% inhibitory concentration (IC50) was less than 10 nM.
As for `CN1CC[C@@H](Oc2ccc(Nc3ncc4c(n3)N(c3cccc(C(C)(C)O)n3)[C@@H]3CC(C)(C)OC[C@]43C)cc2)C1` (single isomer, unassigned) [Example 424], the IC50 is 10 to 100 nM.
Still for that read-out and setting: with `CNCc1cccc(N2c3nc(NC(=O)[C@H]4C[C@@H]4c4cnn(C)c4)ncc3[C@@]3(C)COC(C)(C)C[C@@H]23)n1` [Example 763, (1S,2S)-2-(1-methyl-1H-pyrazol-4-yl)-N-((4bR,8aR)-4b,7,7-trimethyl-9-(6-((methylamino)methyl)pyridin-2-yl)-4b,5,7,8,8a,9-hexahydropyrano[3′,4′:4,5]pyrrolo[2,3-d]pyrimidin-2-yl)cyclopropane-1-carboxamide] the figure was 10 to 100 nM.
The same measure, in the same setting: with `CN1CC[C@@H](Oc2ccc(Nc3ncc4c(n3)N(c3cccc(N5CCCC5=O)n3)[C@H]3CC(C)(C)OC[C@@]43C)cc2)C1` [Example 627, 1-(6-((4bS,8aS)-4b,7,7-trimethyl-2-((4-(((R)-1-methylpyrrolidin-3-yl)oxy)phenyl)amino)-4b,7,8,8a-tetrahydropyrano[3′,4′:4,5]pyrrolo[2,3-d]pyrimidin-9(5H)-yl)pyridin-2-yl)pyrrolidin-2-one] the figure was 10 to 100 nM.
Regarding `Cc1cc(Nc2ncc3c(n2)N(c2cccc(N4CCOC4=O)n2)[C@H]2CC(C)(C)OC[C@@]32C)ccc1N1C[C@@H]2C[C@H]1CN2C` [Example 655, 3-(6-((4bS,8aS)-4b,7,7-trimethyl-2-((3-methyl-4-((1S,4S)-5-methyl-2,5-diazabicyclo[2.2.1]heptan-2-yl)phenyl)amino)-4b,7,8,8a-tetrahydropyrano[3′,4′:4,5]pyrrolo[2,3-d]pyrimidin-9(5H)-yl)pyridin-2-yl)oxazolidin-2-one], the IC50 lay within 10 to 100 nM.
With `CNCc1cccc(N2c3nc(Nc4ccc(N5CCOC[C@H]5C)cc4)ncc3[C@]3(C)COC(C)(C)C[C@H]23)n1` (single isomer, unassigned) [Example 474], the IC50 lay in the range of 100 to 1000 nM.
The molecule `CC1(C)C[C@@H]2N(c3cccc([C@H]4CCCN4)n3)c3nc(Nc4ccc(N5CCOCC5)cc4)ncc3[C@]2(C)CO1` (single isomer, unassigned) [Example 527] displayed an IC50 of 10 to 100 nM.
`CC1(C)C[C@@H]2N(c3cccc(N4CCOC4=O)n3)c3nc(Nc4ccc([C@@H]5CNCC5(F)F)cc4)ncc3[C@]2(C)CO1` [Example 681, 3-(6-((4bS,8aS)-2-((4-((R)-4,4-difluoropyrrolidin-3-yl)phenyl)amino)-4b,7,7-trimethyl-4b,7,8,8a-tetrahydropyrano[3′,4′:4,5]pyrrolo[2,3-d]pyrimidin-9(5H)-yl)pyridin-2-yl)oxazolidin-2-one]: the IC50 was 10 to 100 nM.
`CN1C[C@@H]2C[C@H]1CN2c1ccc(Nc2ncc3c(n2)N(c2ccccn2)[C@@H]2CC(C)(C)OC[C@]32C)cc1` [Example 800, (4bR,8aR)-4b,7,7-trimethyl-N-(4-((1S,4S)-5-methyl-2,5-diazabicyclo[2.2.1]heptan-2-yl)phenyl)-9-(pyridin-2-yl)-4b,5,7,8,8a,9-hexahydropyrano[3′,4′:4,5]pyrrolo[2,3-d]pyrimidin-2-amine] registered an IC50 of less than 10 nM.
`CN1C[C@@H]2C[C@H]1CN2c1ccc(Nc2ncc3c(n2)N(c2cccc(C(C)(C)O)n2)[C@H]2CC(C)(C)OC[C@@]32C)cc1` (single isomer, unassigned) [Example 415] yielded a half-inhibitory concentration (IC50) of 100 to 1000 nM.
Regarding `CN1CC[C@H](c2ccc(Nc3ncc4c(n3)N(c3cccc(N5CCOC5=O)n3)[C@H]3CC(C)(C)OC[C@@]43C)cc2)C1` (single isomer, unassigned) [Example 603], the half-maximal inhibitory concentration (IC50) was 10 to 100 nM.
Molecule `CN1CC[C@H](c2ccc(Nc3ncc4c(n3)N(c3cccc(N5CCCC5=O)n3)[C@H]3CC(C)(C)OC[C@@]43C)cc2)C1` [Example 635, 1-(6-((4bS,8aS)-4b,7,7-trimethyl-2-((4-((R)-1-methylpyrrolidin-3-yl)phenyl)amino)-4b,7,8,8a-tetrahydropyrano[3′,4′:4,5]pyrrolo[2,3-d]pyrimidin-9(5H)-yl)pyridin-2-yl)pyrrolidin-2-one] came in with an IC50 of 10 to 100 nM.
Same read-out and setting: the result for `CN1CCC(n2cc(Nc3ncc4c(n3)N(c3cccc(N=S(C)(C)=O)c3)[C@H]3CC(C)(C)OC[C@@]43C)cn2)CC1` [Example 715, dimethyl((3-((4bS,8aS)-4b,7,7-trimethyl-2-((1-(1-methylpiperidin-4-yl)-1H-pyrazol-4-yl)amino)-4b,7,8,8a-tetrahydropyrano[3′,4′:4,5]pyrrolo[2,3-d]pyrimidin-9(5H)-yl)phenyl)imino)-16-sulfanone] reads 100 to 1000 nM.
